# Results taken from patent US20060014723A1, “Anti-parasitic uses of borinic acid complexes” (priority 2004, published 2006).
# Key:
# [1] = test system: T. b. rhodesiense STIB 900; assay: African sleeping sickness in vitro screening model (Alamar Blue); format: cell-based, Trypanosoma brucei rhodesiense; settings: for IC50: Trypanosoma brucei
# Experimental: Bloodstream from trypomastigotes of the strains (a) and (c) are maintained in Minimal Essential Medium (MEM) with Earle's salts supplemented according to Baltz, et al., (EMBO J. 4:1273-1277, 1985) with 25 mM N-2-hydroxyethylpiperazine-N′-2-ethane-sulphonic acid (HEPES), 1 g/L additional glucose, 1% MEM non-essential amino acids (100×), 0.2 mM 2-mercaptoethanol, 2 mM sodium pyruvate, 0.1 mM hypoxanthine and 15% heat-inactivated horse serum.
# All cultures and assays are conducted at 37° C. under an atmosphere of 5% CO2 in air.
# After use the stocks are kept at −20° C. For the assays, the compound is further diluted in serum-free culture medium and finally to the appropriate concentration in complete medium without hypoxanthine.
# Assays are performed in 96-well microtiter plates, each well containing 100 μL of culture medium with 8×10^3 bloodstream forms with or without a serial drug dilution. The highest concentration for the test compounds is 90 μg/mL. Seven 3-fold drug dilutions are used, covering a range from 90 μg/mL to 0.123 μg/mL. Each drug is tested in duplicate. Active compounds are tested twice for confirmation. The final result is the mean of the four individual IC50 values. After 72 hrs of incubation, the plates are inspected under an inverted microscope to assure growth of the controls and sterile conditions.
# (§1) Ten μL of Alamar Blue (12.5 mg resazurin dissolved in 100 mL distilled water) are now added to each well and the plates are incubated for another 2 hours. Then the plates are read with a Spectramax GEMINI XS microplate fluorometer (Molecular Devices Cooperation, Sunnyvale, Calif., USA) using an excitation wavelength of 536 nm and an emission wave length of 588 nm.
# IC50 values are determined using the microplate reader software Softmax Pro (Molecular Devices Cooperation, Sunnyvale, Calif., USA).
# [2] = test system: Trypanosoma cruzi Tulahuen C2C4 strain; assay: Chagas disease in vitro screening model (beta-galactosidase strain in L-6 cells); format: cell-based
# Experimental: Trypanosoma cruzi Tulahuen C2C4 strain, containing the β-galactosidase (Lac Z) gene (Buckner et al., Antimicrob. Agents Chemother 40:2592-2597, 1996) is used for this study.
# The infective amastigote and trypomastigote stages are cultivated in L-6 cells (a rat skeletal myoblast cell line) in RPMI 1640 medium supplemented with 2 mM L-glutamine and 10% heat-inactivated fetal bovine serum in 12.5 cm^2 tissue culture flasks. Amastigotes develop intracellularly, differentiate into trypomastigotes, and leave the host cell. These trypomastigotes infect new L-6 cells and are the stages used to initiate an infection in the assay. All cultures and assays are conducted at 37° C. under an atmosphere of 5% CO2 in air.
# (§2) After use the stocks are kept at −20° C. For the assays, the compound is further diluted to the appropriate concentration using complete medium.
# Assays are performed in sterile 96-well microtiter plates, each well containing 100 μl medium with 2×10^3 L-6 cells. After 24 hours, […] of a trypanosome suspension containing 5×10^3 trypomastigote bloodstream forms from culture are added to the wells. Forty-eight hours later, the medium is removed from the wells and replaced by […] fresh medium, with or without a serial drug dilution. At this point the L-6 cells should be infected with amastigotes and no free trypomastigotes should be in the medium. Seven 3-fold drug dilutions are used, covering a range from 90 μg/mL to 0.123 μg/mL. Each drug is tested in duplicate. Active compounds are tested twice for confirmation. After 96 hours of incubation the plates are inspected under an inverted microscope to assure growth of the controls and sterility.
# Then the substrate CPRG/Nonidet (50 μl) is added to all wells. A colour reaction will become visible within 2-6 hours and can be read photometrically at 540 nm. Data are transferred into a graphics program (e.g., EXCEL), sigmoidal inhibition curves determined and IC50 values calculated.
# [3] = test system: Leishmania donovani strain MHOM/ET1671L82; assay: Leishmaniasis in vitro screening model (axenic amastigotes, Alamar Blue); format: cell-based
# Experimental: The Leishmania donovani strain MHOM/ET1671L82 (obtained from Dr. S. Croft, London School of Hygiene and Tropical Medicine) is used. The strain is maintained in the Syrian Golden hamster. Amastigotes are collected from the spleen of an infected hamster. Amastigotes are grown in axenic culture at 37° C. in SM medium (Cunningham I., J. Protozoal. 24:325-329, 1977) at pH 5.4 supplemented with 10% heat-inactivated fetal bovine serum (FBS) under an atmosphere of 5% CO2 in air.
# as §2
# Assays are performed in 96-well flat-bottom microtiter plates (Costar, Corning Inc.), each well containing 100 μl of culture medium with 105 amastigotes from axenic culture with or without a serial drug dilution. Concentration of amastigotes is determined in a CASY cell analyzing system (Scharfe System, Reutlingen, Germany). Before the amastigotes are counted, the parasite culture is passed twice through a 22-gauge needle to break up clusters of amastigotes.
# The highest concentration for the test compounds is 90 μg/mL. Seven 3-fold dilutions are used, covering a range from […]. Each drug is tested in duplicate. Active compounds are tested twice for confirmation. After 72 hours of incubation, the plates are inspected under an inverted microscope to assure growth of the controls and sterile conditions.
# as §1, with “then” for “now”, “wave length” for “wavelength”
# Data are analyzed using the microplate reader software Softmax Pro (Molecular Devices Cooperation, Sunnyvale, Calif., USA). Decrease of fluorescence (i.e. inhibition) is expressed as percentage of the fluorescence of control cultures and plotted against the drug concentrations. The IC50 value is calculated from the sigmoidal inhibition curve by the software program.
Structure (SMILES),T. b. rhodesiense IC50 [1] [µg/mL],T. cruzi IC50 [2] [µg/mL],L. donovani IC50 [3] [µg/mL],IC50 [1] [µg/mL],"IC50 ([2]; Trypanosoma cruzi, TULAHUEN, L6, read-out: T. cruzi IC50) [µg/mL]","IC50 ([3]; Leishmania donovani, read-out: L. donovani IC50) [µg/mL]"
Fc1ccc(B(Oc2c(Cl)cc(Cl)c3cccnc23)c2ccc(Cl)cc2)cc1 [Compound 92],1.1,2.55,0.052,,,
"Fc1cccc(B(Oc2cccc3cccnc23)c2ccc(Cl)c(Cl)c2)c1 [Compound 46, (3,4-Dichlorophenyl)(3-fluorophenyl)borinic acid quinolin-8-yl ester]",,,,0.51,0.84,0.44
Clc1cccc(B(Oc2cccc3cccnc23)c2cccnc2)c1 [Compound 99],0.345,4.45,0.49,,,
N#Cc1cccc(B(Oc2cccc3cccnc23)c2cc(F)ccc2F)c1 [Compound 113],0.39,4.25,0.57,,,
C=CB(Oc1cccc2cccnc12)c1ccc(CN(C)C)cc1.Cl [Compound 124],0.445,3.95,0.3,,,
CSc1cccc(B(Oc2cccc3cccnc23)c2cccc(Cl)c2)c1 [Compound 107],0.365,4.1,0.42,,,
CN(C)Cc1ccc(B(Oc2cccc3cccnc23)c2ccc(F)c(F)c2)cc1 [Compound 110],0.38,4.7,0.61,,,
C=CB(Oc1cccc2cccnc12)c1ccc(CN(C)C)cc1 [Compound 119],0.51,3.8,0.36,,,
CC1CCN(S(=O)(=O)c2ccc(B(Oc3cccc4cccnc34)c3ccc(Cl)cc3)cc2)CC1 [Compound 111],0.552,4.15,0.74,,,
CN(C)Cc1ccc(B(Oc2cccc3cccnc23)c2cccc(C#N)c2)cc1.O=C(O)/C=C/C(=O)O [Compound 112],0.44,4.2,0.98,,,
Cc1ccc(B(OC(=O)c2ncccc2C(=O)O)c2ccc(C)c(Cl)c2)cc1Cl [Compound 128],8,1.75,0.61,,,
C=CB(Oc1cccc2cccnc12)c1ccc(F)nc1 [Compound 101],0.3,3.95,0.34,,,
N#Cc1cccc(B(Oc2cccc3cccnc23)c2cccnc2)c1 [Compound 102],0.49,4.2,0.37,,,
C=CB(Oc1cccc2cccnc12)c1ccco1 [Compound 117],0.295,3.65,0.63,,,
N#Cc1cccc(B(Oc2cccc3cccnc23)c2ccc(F)c(F)c2)c1 [Compound 95],0.435,2.95,0.61,,,
C=CB(Oc1cccc2cccnc12)c1ccc(OC)nc1 [Compound 100],0.305,3.8,0.33,,,
N#Cc1cccc(B(OC(=O)c2ncccc2O)c2cccnc2)c1 [Compound 133],0.86,10.4,2.2,,,
Cc1cccc(B(Oc2cccc3cccnc23)c2cccc(C)c2)c1 [Compound 86],0.35,3,0.59,,,
Cc1cc(Cl)ccc1B(OC(=O)c1ncccc1O)c1ccc(Cl)cc1C [Compound 134],1.7,3.6,0.12,,,
"Cc1ccc(B(OC(=O)c2ncccc2O)c2ccc(C)c(Cl)c2)cc1Cl [Compound 127, Bis(3-Chloro-4-methylphenyl)borinic acid 3-hydroxypicolinate ester]",2.5,6.3,0.36,,,
"CC1(C)COC(c2cccc(B(Oc3cccc4cccnc34)c3cccc(Cl)c3)c2)=N1 [Compound 18, (3-Chlorophenyl)[3-(4,5-dihydro-4,4-dimethyloxazol-2yl)phenyl]borinic acid quinolin-8-yl ester]",,,,1.7,,
O=C(OB(c1ccc(Cl)cc1)c1ccc(Cl)cc1)c1cccc(O)n1 [Compound 132],45.7,23.4,14.1,,,
CN(C)CCOc1ccc(B(Oc2cccc3cccnc23)c2ccc(Cl)cc2)cc1 [Compound 104],1.24,4.3,0.71,,,
Fc1ccc(B(Oc2cccc3cccnc23)c2ccc(Cl)cc2)cc1F [Compound 114],0.41,4,0.71,,,
Cc1ccc(B(Oc2cccc3cccnc23)c2ccco2)cc1Cl [Compound 103],0.38,4.4,0.35,,,
Clc1ccc(B(Oc2c(I)cc(Cl)c3cccnc23)c2ccc(Cl)cc2)cc1 [Compound 90],1.4,3.25,0.15,,,
C=CB(Oc1cccc2cccnc12)c1c(C)noc1C [Compound 118],0.265,3.5,0.44,,,
CN(C)Cc1ccc(B(Oc2cccc3cccnc23)c2ccc(Cl)cc2)cc1.O=C(O)/C=C/C(=O)O [Compound 106],0.385,4.25,0.69,,,
Cc1ccc(B(OC(=O)c2ncccc2N)c2ccc(C)c(Cl)c2)cc1Cl [Compound 129],4.4,0.855,1.6,,,
